Measured values reported in patent publication US20120046306A1, “Substituted Heteroaryl Spiropyrrolidine MDM2 Antagonists” (priority 2010, published 2012).

Molecular target: interaction between p53 and MDM2 proteins (Homo sapiens, UniProt Q00987)
Experiment: HTRF assay of inhibition of p53-MDM2 interaction
Assay type: binding
Conditions: GST-MDM2 and biotinylated p53 peptide, bsa: 0.02%
Procedure: The ability of the compounds to inhibit the interaction between p53 and MDM2 proteins was measured by an HTRF (homogeneous time-resolved fluorescence) assay in which recombinant GST-tagged MDM2 binds to a peptide that resembles the MDM2-interacting region of p53. Binding of GST-MDM2 protein and p53-peptide (biotinylated on its N-terminal end) is registered by the FRET (fluorescence resonance energy transfer) between Europium (Eu)-labeled anti-GST antibody and streptavidin-conjugated Allophycocyanin (APC).
Add 20 uL streptavidin-APC and Eu-anti-GST antibody mixture (6 nM Eu-anti-GST and 60 nM streptavidin-APC working solution) in TBS buffer with 0.2% BSA, shake at room temperature for 30 minutes and read using a TRF-capable plate reader at
If not specified, the reagents were purchased from Sigma Chemical Co.

Sequence of interaction between p53 and MDM2 proteins (Q00987 whole entry): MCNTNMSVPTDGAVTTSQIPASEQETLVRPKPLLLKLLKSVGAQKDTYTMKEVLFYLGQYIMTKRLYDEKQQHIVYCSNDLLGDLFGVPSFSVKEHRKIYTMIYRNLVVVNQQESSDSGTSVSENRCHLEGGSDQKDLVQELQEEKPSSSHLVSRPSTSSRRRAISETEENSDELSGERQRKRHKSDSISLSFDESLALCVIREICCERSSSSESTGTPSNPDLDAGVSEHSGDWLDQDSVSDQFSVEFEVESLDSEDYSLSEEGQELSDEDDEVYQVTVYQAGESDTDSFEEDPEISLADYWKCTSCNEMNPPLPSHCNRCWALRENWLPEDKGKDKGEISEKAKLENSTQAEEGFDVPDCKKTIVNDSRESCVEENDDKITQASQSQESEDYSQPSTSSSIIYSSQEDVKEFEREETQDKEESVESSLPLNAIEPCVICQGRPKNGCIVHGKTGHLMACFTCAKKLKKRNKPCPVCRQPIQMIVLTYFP

Structure (SMILES): COc1cc2c(cn1)[C@@]1(C(=O)N2)[C@H](CC(C)(C)C)N[C@@H](C(=O)Nc2ccc(C(N)=O)cc2OC)[C@@H]1c1cccc(Cl)c1F (racemic) [Example 115, rac-(2S,3R,4S,5R)-N-(4-carbamoyl-2-methoxyphenyl)-4-(3-chloro-2-fluorophenyl)-6′-methoxy-2-neopentyl-2′-oxo-1′,2′-dihydrospiro[pyrrolidine-3,3′-pyrrolo[3,2-c]pyridine]-5-carboxamide]
- IC50: 0.127 µM

Structure (SMILES): COC(=O)c1ccc(NC(=O)[C@@H]2N[C@@H](CC(C)(C)C)[C@@]3(C(=O)Nc4c(Cl)ccnc43)[C@H]2c2cccc(Cl)c2F)c(OC)c1 (racemic) [Example 123, methyl rac-4-((2S,3S,4S,5R)-7′-chloro-4-(3-chloro-2-fluorophenyl)-2-neopentyl-2′-oxo-1′,2′-dihydrospiro[pyrrolidine-3,3′-pyrrolo[3,2-b]pyridine]-5-ylcarboxamido)-3-methoxybenzoate]
- IC50: 6.25 µM

Structure (SMILES): COc1cc(C(=O)O)ccc1NC(=O)[C@@H]1N[C@@H](CC(C)(C)C)[C@@]2(C(=O)Nc3ccc(Cl)nc32)[C@H]1c1cccc(Cl)c1F (racemic) [Example 47, rac-4-((2S,3S,4S,5R)-5′-chloro-4-(3-chloro-2-fluorophenyl)-2-neopentyl-2′-oxo-1′,2′-dihydrospiro[pyrrolidine-3,3′-pyrrolo[3,2-b]pyridine]-5-ylcarboxamido)-3-methoxybenzoic acid]
- IC50: 0.0345 µM

Structure (SMILES): COc1cc(C(=O)O)ccc1NC(=O)[C@@H]1N[C@@H](CC(C)(C)C)[C@@]2(C(=O)Nc3cc(C)ncc32)[C@H]1c1cccc(Cl)c1F (racemic) [Example 120, rac-4-((2S,3R,4S,5R)-4-(3-chloro-2-fluorophenyl)-6′-methyl-2-neopentyl-2′-oxo-1′,2′-dihydrospiro[pyrrolidine-3,3′-pyrrolo[3,2-c]pyridine]-5-ylcarboxamido)-3-methoxybenzoic acid]
- IC50: 0.012 µM

Structure (SMILES): COc1cc(C(N)=O)ccc1NC(=O)[C@@H]1N[C@@H](CC(C)(C)C)[C@@]2(C(=O)Nc3cc(Cl)cnc32)[C@H]1c1cccc(Cl)c1 (racemic) [Example 63, rac-(2S,3S,4R,5R)-N-(4-carbamoyl-2-methoxyphenyl)-6′-chloro-4-(3-chlorophenyl)-2-neopentyl-2′-oxo-1′,2′-dihydrospiro[pyrrolidine-3,3′-pyrrolo[3,2-b]pyridine]-5-carboxamide]
- IC50: 0.0146 µM

Structure (SMILES): COC(=O)c1ccc(NC(=O)[C@@H]2N[C@@H](CC(C)(C)C)[C@@]3(C(=O)Nc4nc(Cl)ccc43)[C@H]2c2cccc(Cl)c2F)c(OC)c1 (racemic) [Example 35, methyl rac-4-((2S,3R,4S,5R)-6′-chloro-4-(3-chloro-2-fluorophenyl)-2-neopentyl-2′-oxo-1′,2′-dihydrospiro[pyrrolidine-3,3′-pyrrolo[2,3-b]pyridine]-5-ylcarboxamido)-3-methoxybenzoate]
- IC50: 0.0145 µM
